Measurements published in PubChem BioAssay (NCI).
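The concentration for 50% growth inhibition is given as GI50. TGI: concentration producing complete growth inhibition.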

Key:
Assay in all cases: DTP human tumour cell line panel, 384-well format
HCT-116 colon = system: HCT-116 colon
HCC-2998 colon = system: HCC-2998 colon
SW-620 colon = system: SW-620 colon
SK-MEL-28 melanoma = system: SK-MEL-28 melanoma
NCI/ADR-RES ovarian = system: NCI/ADR-RES ovarian
SNB-75 CNS = system: SNB-75 CNS
OVCAR-4 ovarian = system: OVCAR-4 ovarian
LOX IMVI melanoma = system: LOX IMVI melanoma
UACC-257 melanoma = system: UACC-257 melanoma
DU-145 prostate = system: DU-145 prostate
SF-295 CNS = system: SF-295 CNS
NCI-H23 lung = system: NCI-H23 lung
HOP-62 NSCLC = system: HOP-62 NSCLC
UACC-62 melanoma = system: UACC-62 melanoma
A549 NSCLC = system: A549 NSCLC
UO-31 renal = system: UO-31 renal
U251 glioblastoma = system: U251 glioblastoma
HCT-15 colon = system: HCT-15 colon
A498 renal = system: A498 renal
SK-OV-3 ovarian = system: SK-OV-3 ovarian
SNB-19 CNS = system: SNB-19 CNS
M14 melanoma = system: M14 melanoma
NCI-H460 NSCLC = system: NCI-H460 NSCLC
NCI-H322M lung = system: NCI-H322M lung
PC-3 prostate = system: PC-3 prostate
EKVX NSCLC = system: EKVX NSCLC
MDA-MB-468 breast = system: MDA-MB-468 breast
RPMI-8226 leukemia = system: RPMI-8226 leukemia
CAKI-1 renal = system: CAKI-1 renal
HOP-92 NSCLC = system: HOP-92 NSCLC
SF-539 CNS = system: SF-539 CNS
MALME-3M melanoma = system: MALME-3M melanoma
MOLT-4 leukemia = system: MOLT-4 leukemia
SF-268 CNS = system: SF-268 CNS
SK-MEL-5 melanoma = system: SK-MEL-5 melanoma
HS 578T breast = system: HS 578T breast
IGROV1 ovarian = system: IGROV1 ovarian
MDA-MB-435 melanoma = system: MDA-MB-435 melanoma
K-562 leukemia = system: K-562 leukemia
ACHN renal = system: ACHN renal
BT-549 breast = system: BT-549 breast
MDA-MB-231 breast = system: MDA-MB-231 breast
OVCAR-3 ovarian = system: OVCAR-3 ovarian
OVCAR-8 ovarian = system: OVCAR-8 ovarian
RXF 393 renal = system: RXF 393 renal
NCI-H226 lung = system: NCI-H226 lung
786-0 renal = system: 786-0 renal
KM12 colon = system: KM12 colon
MCF7 breast = system: MCF7 breast
CCRF-CEM leukemia = system: CCRF-CEM leukemia
SN12C renal = system: SN12C renal
T-47D breast = system: T-47D breast
COLO 205 colon = system: COLO 205 colon
TK-10 renal = system: TK-10 renal
HT29 colon = system: HT29 colon
NCI-H522 lung = system: NCI-H522 lung
HL-60(TB) leukemia = system: HL-60(TB) leukemia
OVCAR-5 ovarian = system: OVCAR-5 ovarian

C[C@H]1COCCN1c1cc(C2(S(=O)(=O)C3CC3)CC2)nc(-c2ccc(NC(=S)NCCO)cc2)n1
GI50 (HCT-116 colon): 119 nM
TGI (HCT-116 colon): 16500 nM
GI50 (HCC-2998 colon): 98.6 nM
TGI (HCC-2998 colon): 18600 nM
GI50 (SW-620 colon): 130 nM
TGI (SW-620 colon): 17800 nM
GI50 (SK-MEL-28 melanoma): 26.2 nM
TGI (SK-MEL-28 melanoma): 564 nM
GI50 (NCI/ADR-RES ovarian): 6720 nM
TGI (NCI/ADR-RES ovarian): > 100000 nM
GI50 (SNB-75 CNS): < 10 nM
TGI (SNB-75 CNS): 50.5 nM
GI50 (OVCAR-4 ovarian): 31.8 nM
TGI (OVCAR-4 ovarian): 340 nM
GI50 (LOX IMVI melanoma): 27.6 nM
TGI (LOX IMVI melanoma): 640 nM
GI50 (UACC-257 melanoma): 46.3 nM
TGI (UACC-257 melanoma): 827 nM
GI50 (DU-145 prostate): 59.1 nM
TGI (DU-145 prostate): 18800 nM
GI50 (SF-295 CNS): 34.4 nM
TGI (SF-295 CNS): 335 nM
GI50 (NCI-H23 lung): 83.1 nM
TGI (NCI-H23 lung): 12500 nM
GI50 (HOP-62 NSCLC): 39.1 nM
TGI (HOP-62 NSCLC): 540 nM
GI50 (UACC-62 melanoma): 15 nM
TGI (UACC-62 melanoma): 100 nM
GI50 (A549 NSCLC): 28.9 nM
TGI (A549 NSCLC): 1410 nM
GI50 (UO-31 renal): 121 nM
TGI (UO-31 renal): 14000 nM
GI50 (U251 glioblastoma): 57.2 nM
TGI (U251 glioblastoma): 14900 nM
GI50 (HCT-15 colon): 126 nM
TGI (HCT-15 colon): 86300 nM
GI50 (A498 renal): < 10 nM
TGI (A498 renal): 53.1 nM
GI50 (SK-OV-3 ovarian): 20.1 nM
TGI (SK-OV-3 ovarian): 626 nM
GI50 (SNB-19 CNS): 100 nM
TGI (SNB-19 CNS): 50200 nM
GI50 (M14 melanoma): 20.7 nM
TGI (M14 melanoma): 1830 nM
GI50 (NCI-H460 NSCLC): < 10 nM
TGI (NCI-H460 NSCLC): 11500 nM
GI50 (NCI-H322M lung): 27.4 nM
TGI (NCI-H322M lung): 15500 nM
GI50 (PC-3 prostate): 16.7 nM
TGI (PC-3 prostate): 4390 nM
GI50 (EKVX NSCLC): 40.2 nM
TGI (EKVX NSCLC): 1570 nM
GI50 (MDA-MB-468 breast): < 10 nM
TGI (MDA-MB-468 breast): 31.9 nM
GI50 (RPMI-8226 leukemia): 12 nM
TGI (RPMI-8226 leukemia): 85.3 nM
GI50 (CAKI-1 renal): 17.8 nM
TGI (CAKI-1 renal): 214 nM
GI50 (HOP-92 NSCLC): 25.7 nM
TGI (HOP-92 NSCLC): 601 nM
GI50 (SF-539 CNS): 29.7 nM
TGI (SF-539 CNS): 598 nM
GI50 (MALME-3M melanoma): < 10 nM
TGI (MALME-3M melanoma): 84.3 nM
GI50 (MOLT-4 leukemia): < 10 nM
TGI (MOLT-4 leukemia): 1070 nM
GI50 (SF-268 CNS): < 10 nM
TGI (SF-268 CNS): 28.9 nM
GI50 (SK-MEL-5 melanoma): 11.8 nM
TGI (SK-MEL-5 melanoma): 58.5 nM
GI50 (HS 578T breast): < 10 nM
TGI (HS 578T breast): 35.5 nM
GI50 (IGROV1 ovarian): < 10 nM
TGI (IGROV1 ovarian): 41.9 nM
GI50 (MDA-MB-435 melanoma): 41.5 nM
TGI (MDA-MB-435 melanoma): 3460 nM
GI50 (K-562 leukemia): 41.6 nM
TGI (K-562 leukemia): 16100 nM
GI50 (ACHN renal): 55.1 nM
TGI (ACHN renal): 11800 nM
GI50 (BT-549 breast): 16 nM
TGI (BT-549 breast): 121 nM
GI50 (MDA-MB-231 breast): 34.2 nM
TGI (MDA-MB-231 breast): > 100000 nM
GI50 (OVCAR-3 ovarian): 38 nM
TGI (OVCAR-3 ovarian): 6600 nM
GI50 (OVCAR-8 ovarian): 53.4 nM
TGI (OVCAR-8 ovarian): 12700 nM
GI50 (RXF 393 renal): 25.9 nM
TGI (RXF 393 renal): 310 nM
GI50 (NCI-H226 lung): 19.1 nM
TGI (NCI-H226 lung): 101 nM
GI50 ([…]-0 renal): 50.8 nM
TGI (786-0 renal): 12600 nM
GI50 (KM12 colon): 27.8 nM
TGI (KM12 colon): 17600 nM
GI50 (MCF7 breast): < 10 nM
TGI (MCF7 breast): 5510 nM
GI50 (CCRF-CEM leukemia): 20.6 nM
TGI (CCRF-CEM leukemia): 1630 nM
GI50 (SN12C renal): 18.4 nM
TGI (SN12C renal): 12200 nM
GI50 (T-47D breast): < 10 nM
TGI (T-47D breast): 17.9 nM
GI50 (COLO 205 colon): 19.6 nM
TGI (COLO 205 colon): 3340 nM
GI50 (TK-10 renal): 92.6 nM
TGI (TK-10 renal): 900 nM
GI50 (HT29 colon): 79.3 nM
TGI (HT29 colon): 15800 nM
GI50 (NCI-H522 lung): < 10 nM
TGI (NCI-H522 lung): 6640 nM
GI50 (HL-60(TB) leukemia): 618 nM
TGI (HL-60(TB) leukemia): 15200 nM
GI50 (OVCAR-5 ovarian): 51.8 nM
TGI (OVCAR-5 ovarian): 7110 nM
